Tested on: H3K4me3 at known PRDM9 binding loci and control TSS loci
Experiment: ChIP-qPCR of H3K4me3 in PRDM9-transfected HEK293T cells
Format: cell-based, human
Details: for H3K4me3 ChIP-qPCR 2^-dCq (IP-Input) / 2^-dCq (H3K4me3 IP relative to H3): Replicate 2; for H3K4me3 ChIP-qPCR 2^-dCq (IP-Input): H3K4me3 antibody relative to H3; for <Cq>: mean of two wells, Antibody H3K4me3, Plasmid PRDM9WT, Figure 7 Replicate 2
Protocol: ChIP-qPCR assays were then conducted on known PRDM9 binding loci[26]. Ectopic expression of PRDM9^WT increased trimethylation of H3K4 (H3K4me3) at previously described PRDM9-specific intragenic and intergenic regions[26] (Fig. 7; Supplementary Fig. 12). […] The observed increases in H3K4me3 levels at intragenic and intergenic regions are therefore due directly to PRDM9 PR domain-dependent methylation activity, rather than through recruitment of other H3K4 methyltransferases or other indirect mechanisms.
ChIP qPCR analyses of H3K4me3 methylation levels of known PRDM9-bound loci and control loci. […] Concentrations used (µM) are indicated below each plot. (a–d) represent reported loci of PRDM9 methylation; (e, f) are transcriptional start sites (TSSs) which are not known loci of PRDM9 methylation. Data are normalized to total H3 and are presented as the mean ± upper and lower limits from two replicates. Representative plots of two independent experiments are shown in this figure. The coordinates and the genomic features associated with the assayed loci are indicated above each plot. Left Tailed Student's t-tests were performed by comparing DMSO (0 µM) treated cells to compound treated cells that have been transfected with the same plasmids. *p-value < 0.05 and **p-value < 0.01. Note that here we show a representative of two independent experiments (mean ± s.d of technical replicates) for our ChIP-qPCR experiments. Data obtained using this technique are inherently noisy due to stochastic differences in gene activity/histone positioning. Data are thus typically presented as representative rather than averaged. Source data are provided as a Source Data file.
HEK293T cells were transfected with 37.5 μg empty pcDNA3.1(+) vector (Invitrogen), or the same vector expressing either wild-type PRDM9 (PRDM9^WT) or a catalytically dead PRDM9 mutant (PRDM9^Mut) and 75 μL of Lipofectamine 2000 (Invitrogen) in 6 mL of Opti-MEM (GIBCO) for 48 h. […] ChIP assays were then performed as previously described. Briefly, cells were fixed in 1% formaldehyde and the fixation reaction was quenched in a final concentration of 0.1 M glycine. Cell pellets were first lysed in LB1 (50 mM HEPES-KOH pH 7.5, 140 mM NaCl, 1 mM EDTA, 10% Glycerol, 0.5% Igepal, 0.25% TritonX), washed once in LB2 Buffer (10 mM Tris-HCl pH 8, 200 mM NaCl, 1 mM EDTA, 0.5 mM EGTA) and finally sonicated in LB3 buffer (10 mM Tris-HCl pH 8, 100 mM NaCl, 1 mM EDTA, 0.5 mM EGTA, 0.1% Sodium deoxycholate, 0.5% N-laurosylsarcosine) using a bioruptor (Diagenode). Thereafter, 50 μg of chromatin was subjected to ChIP using the following antibodies purchased from Abcam: α-H3K4me3 (1:200, ab8580, lot:GR3207339-1) and α-H3 (1:250, ab1791, lot:GR300978-4). After extensive washing in RIPA wash buffer (50 mM HEPES-KOH pH 7.6, 100 mM LiCl, 1 mM EDTA, 1% Igepal, 0.7% Sodium Deoxycholate), DNA was eluted from beads. The eluted DNA was treated with RNase A and Proteinase K and purified using the QIAGEN PCR purification kit. qPCR was then carried out targeting the indicated loci (Supplementary Table 3). Upper and lower limits were defined by |2^−(dCq±s) − 2^−(∆Cq)|, where s = √((Standard deviation of Input Cq)^2 + (Standard deviation of Target Cq)^2). […]
formation. ChIP qPCR analyses of H3K4me3 methylation levels at known PRDM9-bound and control loci. Cells transfected with empty vector (negative control) or vectors overexpressing either wild-type PRDM9 (PRDM9 WT) or catalytically dead PRDM9 (PRDM9 MUT) were […]
Panels a-d represent reported loci of […]
(1 picture or pasted object on this page, not shown here)
PRDM9 methylation; e-f are TSSs which are not known sites of PRDM9 methylation. Data are normalized to total H3 and are presented as the mean ± upper and lower limits from two […]

SMILES: COc1cc(OC)cc(-c2noc(N3CCN(C)C4(CCN(c5ccnc(C)c5)CC4)C3)n2)c1 [MRK-740]
- H3K4me3 ChIP-qPCR 2^-dCq (IP-Input) (chr2:40281930-40282015 Intragenic (SLC8A1-AS1), Figure 7 C, PRDM9WT, Drug Conc. 10): 2.181
- 2^-dCq (H3K4me3 IP relative to H3) (chr2:40281930-40282015 Intragenic (SLC8A1-AS1), Empty Vector, Drug Conc. 5, Figure S12 C): 0.9795
- 2^-dCq (H3K4me3 IP relative to H3) (chr2:40281930-40282015 Intragenic (SLC8A1-AS1), PRDM9MUT, Drug Conc. 5, Figure S12 C): 0.2048
- 2^-dCq (H3K4me3 IP relative to H3) (chr2:40281930-40282015 Intragenic (SLC8A1-AS1), PRDM9WT, Drug Conc. 5, Figure S12 C): 5.934
- H3K4me3 ChIP-qPCR 2^-dCq (IP-Input) (chr2:128811847-128811944 (Intergenic), Figure 7 A, Empty Vector, Drug Conc. 2.5): 1.167
- H3K4me3 ChIP-qPCR 2^-dCq (IP-Input) (chr2:128811847-128811944 (Intergenic), Figure 7 A, Empty Vector, Drug Conc. 5): 1.563
- H3K4me3 ChIP-qPCR 2^-dCq (IP-Input) (chr2:128811847-128811944 (Intergenic), Figure 7 A, Empty Vector, Drug Conc. 10): 1.267
- H3K4me3 ChIP-qPCR 2^-dCq (IP-Input) (chr2:128811847-128811944 (Intergenic), Figure 7 A, PRDM9WT, Drug Conc. 2.5): 4.007
- H3K4me3 ChIP-qPCR 2^-dCq (IP-Input) (chr2:128811847-128811944 (Intergenic), Figure 7 A, PRDM9WT, Drug Conc. 5): 4.852
- H3K4me3 ChIP-qPCR 2^-dCq (IP-Input) (chr2:128811847-128811944 (Intergenic), Figure 7 A, PRDM9WT, Drug Conc. 10): 1.932
- 2^-dCq (H3K4me3 IP relative to H3) (chr2:128811847-128811944 (Intergenic), Empty Vector, Drug Conc. 5, Figure S12 A): 1.563
- 2^-dCq (H3K4me3 IP relative to H3) (chr2:128811847-128811944 (Intergenic), PRDM9MUT, Drug Conc. 5, Figure S12 A): 0.3928
- 2^-dCq (H3K4me3 IP relative to H3) (chr2:128811847-128811944 (Intergenic), PRDM9WT, Drug Conc. 5, Figure S12 A): 4.852
- 2^-dCq (H3K4me3 IP relative to H3) (chr3:165514798-165514911 Intragenic (BCHE), Empty Vector, Drug Conc. 5, Figure S12 D): 0.9187
- 2^-dCq (H3K4me3 IP relative to H3) (chr3:165514798-165514911 Intragenic (BCHE), PRDM9MUT, Drug Conc. 5, Figure S12 D): 0.2392
- 2^-dCq (H3K4me3 IP relative to H3) (chr3:165514798-165514911 Intragenic (BCHE), PRDM9WT, Drug Conc. 5, Figure S12 D): 7.878
- H3K4me3 ChIP-qPCR 2^-dCq (IP-Input) (chr8:49932778-49932856 (Intergenic), Figure 7 B, Empty Vector, Drug Conc. 2.5): 0.8281
- H3K4me3 ChIP-qPCR 2^-dCq (IP-Input) (chr8:49932778-49932856 (Intergenic), Figure 7 B, Empty Vector, Drug Conc. 5): 1.029
- H3K4me3 ChIP-qPCR 2^-dCq (IP-Input) (chr8:49932778-49932856 (Intergenic), Figure 7 B, Empty Vector, Drug Conc. 10): 0.9528
- H3K4me3 ChIP-qPCR 2^-dCq (IP-Input) (chr8:49932778-49932856 (Intergenic), Figure 7 B, PRDM9WT, Drug Conc. 2.5): 8.6274
- H3K4me3 ChIP-qPCR 2^-dCq (IP-Input) (chr8:49932778-49932856 (Intergenic), Figure 7 B, PRDM9WT, Drug Conc. 5): 4.182
- H3K4me3 ChIP-qPCR 2^-dCq (IP-Input) (chr8:49932778-49932856 (Intergenic), Figure 7 B, PRDM9WT, Drug Conc. 10): 1.779
- 2^-dCq (H3K4me3 IP relative to H3) (chr8:49932778-49932856 (Intergenic), Empty Vector, Drug Conc. 5, Figure S12 B): 1.029
- 2^-dCq (H3K4me3 IP relative to H3) (chr8:49932778-49932856 (Intergenic), PRDM9MUT, Drug Conc. 5, Figure S12 B): 0.2948
- 2^-dCq (H3K4me3 IP relative to H3) (chr8:49932778-49932856 (Intergenic), PRDM9WT, Drug Conc. 5, Figure S12 B): 4.182
- 2^-dCq (H3K4me3 IP relative to H3) (chr12:6643945-6644023 TSS (GAPDH), Empty Vector, Drug Conc. 5, Figure S12 E): 83.0384
- 2^-dCq (H3K4me3 IP relative to H3) (chr12:6643945-6644023 TSS (GAPDH), PRDM9MUT, Drug Conc. 5, Figure S12 E): 72.3311
- 2^-dCq (H3K4me3 IP relative to H3) (chr12:6643945-6644023 TSS (GAPDH), PRDM9WT, Drug Conc. 5, Figure S12 E): 130.72
- 2^-dCq (H3K4me3 IP relative to H3) (chr19:8510167-8510261 TSS (HNRNPM), Empty Vector, Drug Conc. 5, Figure S12 F): 107.435
- 2^-dCq (H3K4me3 IP relative to H3) (chr19:8510167-8510261 TSS (HNRNPM), PRDM9MUT, Drug Conc. 5, Figure S12 F): 76.5131
- 2^-dCq (H3K4me3 IP relative to H3) (chr19:8510167-8510261 TSS (HNRNPM), PRDM9WT, Drug Conc. 5, Figure S12 F): 143.684
- <Cq> (Drug Conc. 2.5): 20.8229
- <Cq> (Drug Conc. 5): 20.8538
- <Cq> (Drug Conc. 10): 21.2288

From article PMC6917776, “Discovery of a chemical probe for PRDM9” (Nature Communications, 2019)
